Reference: patent US9994691B2, “Antimicrobial cleansing composition” (Conopco, Inc., d/b/a UNILEVER, priority 2014, dated 2018)

From the text: Disclosed antimicrobial cleansing composition includes 0.1 to 100 ppm silver (I) compound. […] More particularly, silver ion solubility [Ag+], a value given in mol/L may be calculated using the formula: [Ag+]=(Ksp·x)^(1/(x+1))

## [Cl][Ag] [Silver chloride]
  Silver Ion Solubility [Ag+]: 13 µM
